The values that follow come from patent US5658906A, “Cysteine protease and serine protease inhibitors” (Cephalon, Inc., priority 1996, dated 1997).

One assay concerns the target T1, Calpain I (Homo sapiens, UniProt P07384).
T1 construct: Calpain I was purified from human red blood cells; from tissue; host or cells: human red blood cells (packed, outdated)
T1 sequence (P07384 1-714): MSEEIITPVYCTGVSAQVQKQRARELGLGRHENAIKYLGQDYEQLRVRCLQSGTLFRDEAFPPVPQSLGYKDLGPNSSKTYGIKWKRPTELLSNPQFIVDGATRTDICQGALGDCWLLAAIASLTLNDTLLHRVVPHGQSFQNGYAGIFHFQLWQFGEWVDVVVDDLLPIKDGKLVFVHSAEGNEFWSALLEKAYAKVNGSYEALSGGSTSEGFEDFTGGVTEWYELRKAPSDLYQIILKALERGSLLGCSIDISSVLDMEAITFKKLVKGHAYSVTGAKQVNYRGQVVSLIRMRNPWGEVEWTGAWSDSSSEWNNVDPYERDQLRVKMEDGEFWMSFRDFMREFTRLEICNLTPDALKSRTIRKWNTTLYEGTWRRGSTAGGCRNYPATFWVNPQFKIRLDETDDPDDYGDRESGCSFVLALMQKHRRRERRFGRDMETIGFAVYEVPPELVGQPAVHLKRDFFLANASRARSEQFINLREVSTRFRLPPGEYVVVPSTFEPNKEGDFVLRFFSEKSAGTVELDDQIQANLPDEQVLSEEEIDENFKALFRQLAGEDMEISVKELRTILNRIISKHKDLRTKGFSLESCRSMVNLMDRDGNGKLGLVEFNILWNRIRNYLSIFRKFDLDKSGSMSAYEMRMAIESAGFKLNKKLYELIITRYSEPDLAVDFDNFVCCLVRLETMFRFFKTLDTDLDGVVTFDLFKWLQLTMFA
T1 sequence (P04632 1-268 partner): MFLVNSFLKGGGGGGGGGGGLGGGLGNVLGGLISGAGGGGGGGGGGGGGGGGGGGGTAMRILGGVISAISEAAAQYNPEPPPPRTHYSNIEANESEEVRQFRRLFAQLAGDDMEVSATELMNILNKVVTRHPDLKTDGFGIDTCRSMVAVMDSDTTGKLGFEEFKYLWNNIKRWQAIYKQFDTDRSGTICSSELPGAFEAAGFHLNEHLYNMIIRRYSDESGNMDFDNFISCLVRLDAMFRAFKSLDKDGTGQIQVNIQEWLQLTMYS
Nature of the assay: Inhibition and rate of inactivation of calpain I (Succ-Leu-Tyr-MNA hydrolysis). Format: biochemical. To be noted: mean of three or more independent analyses, corrected for substrate, k2 = kapp(1+[S]/Km), read-out: k2 (second order rate constant of inactivation), A = Calpain I. The procedure:
To evaluate inhibitory activity of our compounds, stocks (40 times concentrated) of each compound to be tested were prepared in 100% anhydrous dimethyl sulfoxide (DMSO) and 5 μl of each inhibitor preparation was aliquoted into each of three wells of a 96 well plate. Calpain I was purified from human red blood cells using a modification of the method described by Lee, W. J. et al. (Biochem. Internatl. (1990)22(1): 163-171). Briefly, 3 units of packed outdated red blood cells were washed 3× by repeated centrifugation at 500 rpm for 10 minutes through 900 mls of 0.9% NaCl. Cells were lysed in 20 mM Tris/1 mM EDTA/1 mM EGTA/5 mM mercaptoethanol (Buffer A) and centrifuged for 1 hour at 12,000 rpm in a GSA rotor using a Sorval centrifuge. The supernatant was collected and applied to a DEAE-sepharose FF column equilibrated in Buffer A+25 mM NaCl. After washing the column in Buffer A+25 mM NaCl, the bound protein was eluted at 117 ml/hr with a 25 mM to 150 mM NaCl linear gradient in Buffer A collecting 200, 10 mL fractions. Two μl of every fifth fraction was applied to nitrocelluose using a dot blot apparatus and calpain containing fractions identified by Western analysis. For detection of calpain, nitrocellulose sheets were first blocked in 5% Blotto (5% Carnation instant milk/10 mM Tris/[…]150 mM NaCl) for 30 minutes, followed by incubation for 1 hour in antibody directed against Calpain I (rabbit anti-human calpain I polyclonal sera, 1:1000 dilution in 5% Blotto). After three 5 minutes washes in 10 mM Tris/150 mM NaCl/0.05% Tween 20 the nitrocellulose was incubated for 1 hour in secondary alkaline phosphatase conjugated antibody (Biorad Cat#170-6518 1:2000 in 5% Blotto). After three 5 minutes washes in 10 mM Tris/150 mM NaCl/0.05% Tween 20 and 1 wash in 10 mM Tris/150 mM NaCl the nitrocellulose was incubated for up to 2 hours in a colorimetric substrate solution (Biorad Alkaline Phosphatase Substrate conjugate kit, cat#170-6432). The reaction was stopped by washing in water. After fractions containing calpain, and those in between, were pooled, solid ammonium sulfate was added to achieve a 30% solution and the mixture stirred for 1 hour at 4° C. Following collection of the precipitate by centrifugation for 1 hour at 4° C. at 12K rpm in a GSA rotor, the supernatant was collected and brought to 45% in ammonium sulfate. After stirring for 1 hour at 4° C., centrifugation was repeated. The supernatant was discarded and the precipitate resuspended in approximately 7 mls and dialyzed overnight at 4° C. against Buffer A+50 mM NaCl. The sample was then applied to a S300 gel filtration column preequilibrated in Buffer A+50 mM NaCl, washed and eluted at a flow rate of 20 ml/hr, collecting 200, 4 ml fractions. The peak of calpain was determined by assaying aliquots of every fifth fraction for enzyme activity monitored by the hydrolysis of a fluorogenic dipeptide substrate as described below. The peak fractions were pooled and the enzyme preparation used to test compounds for inhibitory activity. As an alternate to enzyme isolated from tissue sources, recombinant human calpain I has also been used to monitor compounds for inhibitory activity.
The foregoing enzyme preparation was diluted into assay buffer (i.e., 50 mM Tris, 50 mM NaCl, 1 mM EDTA, 1 mM EGTA, and 5 mM β-mercaptoethanol, pH 7.5 including 0.2 mM Succ-Leu-Tyr-MNA) and 175 μl aliquoted into the same wells containing the independent inhibitor stocks as well as to positive control wells containing 5 μl DMSO, but no compound. To start the reaction, 20 μl of 50 mM CaCl2 in assay buffer was added to all wells of the plate, excepting three, which were used as background signal baseline controls. Substrate hydrolysis was monitored every 5 minutes for a total of 30 minutes using Flouroskan II (ex=340 nm; em=430 nm). Substrate hydrolysis in the absence of inhibitor was linear for up to 15 minutes. […]

Another assay deals with T2, α-chymotrypsin (Bos taurus, UniProt P00766).
T2 construct: purchased Sigma Chem. Co. C-3142
Nature of the assay: Inhibition of the serine protease α-chymotrypsin (Succ-Ala-Ala-Pro-Phe-AMC hydrolysis). Format: biochemical. Conditions: pH 7.5, 0.03 mM substrate. The procedure: Additionally,because α-chymotrypsin is not a calcium sensitive enzyme and is constituitively active, following addition of inhibitor stocks to the 96 well plates, 100 ul of a 2 fold concentrated stock of enzyme in dilution buffer was first added and the reaction started by addition of 100 ul of a 2 fold concentrated stock of substrate in assay buffer. Substrate hydrolysis was monitored every 5 minutes up to 30 minutes using a Fluoroskan II ([…]).

In another assay the target is T3, Cathepsin B (Homo sapiens, UniProt P07858).
T3 construct: purchased Calbiochem 219364
As to the kind of experiment: Inhibition and rate of inactivation of cathepsin B (Cbz-Phe-Arg-AMC hydrolysis). The assay is classed as biochemical. To be noted: pH 6.0, 0.1 mM substrate, read-out: k2 (second order rate constant of inactivation), C = Cathepsin B. As to the method:
Additionally, the order of reagents added to the plate was altered because both enzymes are constitutively active. Following inhibitor addition to the plates appropriate 2× concentrated stock dilutions of the enzyme preparations were made in assay buffer and 100 ul added to each well. The assay was initiated by addition of 100 ul of 2× concentrated stock dilution of substrate in assay buffer. Substrate hydrolysis was monitored using a Fluroskan II (ex=390 nm; em=460 nm).
Inhibition of enzyme activity was calculated as the percent decrease in the rate of substrate hydrolysis in the presence of inhibitor (.upsilon.i) relative to the rate in its absence (.upsilon.o). Comparison between .upsilon.o and .upsilon.i was made within the linear range for substrate hydrolysis. For screening, compounds were tested at 10 μM. Compounds having ≥50% inhibition at 10 μM were considered active. Apparent second order rate constants were determined from analysis of reaction progress curves under pseudo-first order conditions. Each determination represents the mean of three or more independent single cuvette analyses continually monitored via a Perkin-Elmer LS50B spectrofluorimeter. The rate of inhibition of hydrolysis was obtained by fitting the curve to the exponential equation (1):
y=Ae^-k.spsb.obs·t +B (1)
where y (Pt) is the product formed at time t. A and B are constants. A, the amplitude of the reaction, is given by [Po -P.varies. ] and B (=P.varies.) is the maximal product formed when the reaction is […]. This was corrected for the presence of equation (2): […]

Assay [1] relates to calpain I in Molt-4 cells (α-spectrin breakdown products). As to the kind of experiment: Inhibition of calpain activation in intact Molt-4 cells (calpain-generated spectrin breakdown products). Format: cell-based. To be noted: Homo sapiens, calcium and ionophore (ionomycin), read-out: % Inhibition of BDPs (10 μM).

A word on the inhibition: it is the relative decrease from the control value, in per cent. With `CC(C)C[C@H](NC(=O)OCc1ccccc1)C(=O)N[C@@H](Cc1ccccc1)C(=O)COn1nnc2ccc(C(F)(F)F)cc21` [Example 7, 1-[N-[N-Benzyloxycarbonyl-L-leucyl]-3S-4-phenyl-3-amino-2-oxobutyloxy]-6'-trifluoromethylbenzotriazole], the kinact/KI at Calpain I is 160000 M⁻¹ s⁻¹; at Cathepsin B, 18000 M⁻¹ s⁻¹. The molecule also came in with an inhibition at 10 µM on α-chymotrypsin of 99%.

As to `CC(C)C[C@H](NC(=O)OCc1ccccc1)C(=O)N[C@@H](Cc1ccccc1)C(=O)COn1nnc2ccc(Cl)cc21` [Example 8, 1-[N-[N-Benzyloxycarbonyl-L-leucyl]-3S-4-phenyl-3-amino-2-oxybutyloxy]-6'-chlorobenzotriazole], the kinact/KI at Calpain I is 101000 M⁻¹ s⁻¹. Moreover, in assay [1], the inhibition at 10 µM was 57%.

As for `COc1ccc2nnn(OCC(=O)[C@H](Cc3ccccc3)NC(=O)[C@H](CC(C)C)NC(=O)OCc3ccccc3)c2c1` [Example 9, 1-[N-[N-Benzyloxycarbonyl-L-leucyl]-3S-4-phenyl-3-amino-2-oxobutyloxy]-6'-methoxybenzotriazole], the kinact/KI came to 125000 M⁻¹ s⁻¹ on Calpain I and 52000 M⁻¹ s⁻¹ at Cathepsin B. The same molecule yielded an inhibition at 10 µM on α-chymotrypsin of 83%.

As for `CC(C)C[C@H](NC(=O)OCc1ccccc1)C(=O)N[C@@H](Cc1ccccc1)C(=O)COn1nnc2ccc(F)cc21` [Example 10, 1-[N-[N-Benzyloxycarbonyl-L-leucyl]-3S-4-phenyl-3-amino-2-oxobutyloxy]-6'-fluorobenzotriazole], at Calpain I, the kinact/KI came out at 50000 M⁻¹ s⁻¹. This molecule had an inhibition at 10 µM against α-chymotrypsin of 89%.

For `Cc1cc2nnn(OCC(=O)[C@H](Cc3ccccc3)NC(=O)[C@H](CC(C)C)NC(=O)OCc3ccccc3)c2cc1Cl` [Example 11, 1-[N-[N-Benzyloxycarbonyl-L-leucyl]-3S-4-phenyl-3-amino-2-oxobutyloxy]-6'-chloro-5'-methylbenzotriazole], the kinact/KI at Calpain I stood at 98000 M⁻¹ s⁻¹; at Cathepsin B it was 28000 M⁻¹ s⁻¹. The molecule also had an inhibition at 10 µM at α-chymotrypsin of 100%.

For the molecule `Cc1cccc2c1nnn2OCC(=O)[C@H](Cc1ccccc1)NC(=O)[C@H](CC(C)C)NC(=O)OCc1ccccc1` [Example 12, 1-[N-[N-Benzyloxycarbonyl-L-leucyl]-3S-4-phenyl-3-amino-2-oxobutyloxy]-4'-methylbenzotriazole], the kinact/KI at Calpain I came out at 46000 M⁻¹ s⁻¹. At α-chymotrypsin, 10 µM produced 94% inhibition.

On to `CC(C)C[C@H](NC(=O)OCc1ccccc1)C(=O)N[C@@H](Cc1ccccc1)C(=O)COn1nnc2c(F)c(F)c(F)c(F)c21` [Example 16, 1-[N-[N-Benzyloxycarbonyl-L-leucyl]-3S-4-phenyl-3-amino-2-oxybutyloxy]-4',5',6',7'-tetrafluorobenzotriazole], for which, on Calpain I, the kinact/KI amounted to 93000 M⁻¹ s⁻¹. In addition, the inhibition at 10 µM in assay [1] was determined as 64%.

With `CC(C)C[C@H](NC(=O)OCc1ccccc1)C(=O)N[C@@H](Cc1ccccc1)C(=O)COn1nnc2ncccc21` [Example 19, 1-[N-[N-Benzyloxycarbonyl-L-leucyl]-3S-4-phenyl-3-amino-2-oxybutyloxy]-(1H)-triazolo[4,5-b]pyridine], the kinact/KI on Calpain I was 57000 M⁻¹ s⁻¹. Also, the inhibition at 10 µM in assay [1] stood at 54%.

As to `CCc1cc2c(cc1Cl)nnn2OCC(=O)[C@H](Cc1ccccc1)NC(=O)[C@H](CC(C)C)NC(=O)OCc1ccccc1` [Example 24, 1-[N-[N-Benzyloxycarbonyl-L-leucyl]-3S-4-phenyl-3-amino-2-oxybutyloxy]-5'-chloro-6'-ethylbenzotriazole], the kinact/KI on Calpain I turned out to be 84000 M⁻¹ s⁻¹; at Cathepsin B it was 30000 M⁻¹ s⁻¹.

Turning to `CC(C)CC(CC(=O)C1c2ccccc2Oc2ccccc21)C(=O)N[C@@H](Cc1ccccc1)C(=O)COn1nnc2ccccc21` (stereo partly drawn) [Example 39, 1-[N-[2-(2-Methylpropyl)-1,4-dioxo-4-(xanthen-9-yl)butyl]-3S-3-amino-2-oxo-4-phenylbutyloxy]benzotriazole], the kinact/KI at Calpain I was 46000 M⁻¹ s⁻¹; at Cathepsin B, 55000 M⁻¹ s⁻¹. At α-chymotrypsin, this molecule registered an inhibition at 10 µM of 100%.

As to `CC(C)CC(CC(=O)C1c2ccccc2Oc2ccccc21)C(=O)N[C@@H](CC(C)C)C(=O)COn1nnc2ccccc21` (stereo partly drawn) [Example 40], the figures for the kinact/KI at Calpain I and on Cathepsin B were 2700 M⁻¹ s⁻¹ and 48000 M⁻¹ s⁻¹, respectively. Also, 10 µM produced 100% inhibition at α-chymotrypsin.
